Data on two compounds can be found in patent US12349710B2, “Sensory modifiers” (CARGILL, INCORPORATED, priority 2019, dated 2025).

The nature of series [1]: Roundtable sensory panel of at least four experienced individuals, aqueous test samples (Example 1). Set-up: key to Spiky-Rounded: 0—like Reb M/N (spiky); 1—mostly spiky, some rounded; 2—mostly rounded, some spiky; 3—rounded; key to Sweet Linger / Tea/floral/green / Bitter / Typical Reb M/N Attributes (astringency, metallic, powdery, numbing, vapory): 0—none,; 1—trace/faint; 2—slight; 3—moderate; 4—definite; 5—strong; 6—extreme, typical Reb M/N; key to Mouthfeel: 0—water; 1—sucrosey; 2—syrupy. To be noted: solution in reverse osmosis water. The format is in vivo. On the procedure: Solutions were prepared which contained either a steviol glycoside component alone, for use as a control sample, or a steviol glycoside component and sensory modifier in a 2:1 molar ratio, which also corresponds to a 2:1 weight ratio. Solutions were prepared by dissolving the steviol glycoside components and sensory modifiers into reverse osmosis water at the indicated concentrations and/or ratios.
Assays were carried out to characterize the sensory attributes of steviol glycoside compositions having various salt fractions of sensory modifier. Sensory attributes of the solutions were tested by a panel of at least four individuals that are experienced in tasting steviol glycoside compositions. The experienced panelists used a roundtable methodology to assess each sweetness attribute. To test each solution, the experienced panelists dispensed approximately 2 mL of each solution into their own mouths by transfer pipet, dispersed the solution by moving their tongues, and recorded a value for the particular sweetness attribute being tested. Between tasting solutions, the panelists were able to cleanse their palates with water. For each sweetness attribute, the panelists agreed on a descriptive scale with relative intensities assigned for each sweetness attribute and then recorded the values for each sweetness attribute against this.
A mixture of monocaffeoylquinic acid and dicaffeoylquinic acid was obtained from yerba mate to provide the sensory modifier in acid form. Separately from the steviol glycoside component, the mixture of monocaffeoylquinic acid and dicaffeoylquinic acid was adjusted with sodium hydroxide or potassium hydroxide to obtain sodium salts or potassium salts (each corresponding to 100% salt form). The resulting samples were freeze-dried to provide sensory modifier (SM) in ready-to-use, powder-form. A series of samples were prepared from the sensory modifier. For each sample, the final concentration of sensory modifiers was 470-500 ppm (wt/wt), including the contribution of salt mass. Steviol Glycoside Component Examples A and B were used alone as a control sample and also used as the starting point for the sensory modified samples.
For each sample, the flavor profile was compared to the steviol glycoside solution alone as well as to the sample with differing salt composition.

The nature of series [2]: Perceived sweetness intensity (SEV, sucrose equivalent value) of aqueous test samples. It counts as in vivo. The conditions noted are these: sucrose equivalent value (SEV 1 = 1% sucrose solution); solution in reverse osmosis water. An excerpt: In some aspects, minor steviol glycosides can also have specific sensory attributes related to sweetness intensity. Perceived sweetness intensity can be reported as SEV (sucrose equivalent value) with increasing sweetness intensity corresponding to higher SEV. A SEV of 1 corresponds to a 1% sucrose solution, a SEV of 2 corresponds to a 2% sucrose solution, and so on. While perception of sweetness intensity generally increases as the concentration of the minor steviol glycoside increases, the perceived sweetness intensity can reach a plateau despite increasing amounts of the minor steviol glycoside. […]
As a further example, sweetness intensity of the solutions can be tested by a panel of at least four individuals that are experienced in tasting steviol glycoside compositions. […] The panelists also can taste the standard range of 1%, 2%, 3%, 4%, 5%, 6%, 7%, 8%, 9%, 10%, 11%, 12%, 13%, and 14% sucrose solutions ad libitum between tasting test solutions to ensure an accurate match to their recorded SEV values with the standard sucrose solutions. […]
A mixture of monocaffeoylquinic acid and dicaffeoylquinic acid was obtained from yerba mate to provide the sensory modifier in acid form. […] The resulting samples were freeze-dried to provide sensory modifier (SM) in ready-to-use, powder-form. […]

For series [3] the following is noted: cited from earlier work.

Turning to `C=C1C[C@@]23CC[C@H]4[C@@](C)(CCC[C@@]4(C)C(=O)O[C@@H]4O[C@H](CO)[C@@H](O)[C@H](O[C@@H]5O[C@H](CO)[C@@H](O)[C@H](O)[C@H]5O)[C@H]4O[C@@H]4O[C@H](CO)[C@@H](O)[C@H](O)[C@H]4O)[C@@H]2CC[C@]1(O[C@@H]1O[C@H](CO)[C@@H](O)[C@H](O[C@@H]2O[C@H](CO)[C@@H](O)[C@H](O)[C@H]2O)[C@H]1O[C@@H]1O[C@H](CO)[C@@H](O)[C@H](O)[C@H]1O)C3` [Component Example A, rebaudioside M], in series [1] (panel score 0-2), the Mouthfeel is recorded as 0. The Spiky-Rounded in series [1] (panel score 0-3) stood at 0. In series [1] (panel score 0-5), the Tea/floral/green came to 0. In addition, in series [1] (panel score 0-6), the Bitter is on record as 5; the “Sweet Linger” value amounted to 4; the “Typical Reb M/N Attributes (astringency, metallic, powdery, numbing, vapory)” value was 4. Also, the SEV in series [2] is on record as 9.5.
For the compound `O=C(O)[C@]1(O)C[C@@H](O)[C@@H](O)[C@H](O)C1` [quinic acid, D-(−)-quinic acid], the pKa entry in series [3] was “around 3.46”.
